Source: patent US20130338574A1, “ORAL MEDICINAL COMPOSITION FOR PATIENTS UNDERGOING PERITONEAL DIALYSIS AND METHOD FOR USING SAME” (TOKAI UNIVERSITY EDUCATIONAL SYSTEM, priority 2010, published 2013)

Columns and labels:
[1] = Stability of pyridoxamine in peritoneal dialysis fluid (HPLC); type: physicochemical; conditions: for peak height of pyridoxamine measured by HPLC / rate of peak height of pyridoxamine to first measurement day: 5 μg/ml
Description: • Peritoneal dialysis fluid: Dianeal (registered trademark)-N PD-4-1.5 (Baxter Limited) • Pyridoxamine dihydrochloride (Wako Pure Chemical Industries, Ltd.)
The above peritoneal dialysis fluid is composed of an acid solution containing glucose (pH 3.5 to 4.5) and an alkaline solution containing an electrolyte, such as sodium lactate (pH 7.0 to 7.7), which are respectively placed in upper and lower compartments of a two-compartment container divided by an openable partition. When peritoneal dialysis treatment is performed on a chronic renal failure patient, the partition is opened between the upper and lower compartments so that both solutions are mixed, and the mixture is used after its pH is adjusted to a neutral range (pH 6.5 to 7.5).
The glucose-containing solution (pH 4.15) in the upper compartment of the peritoneal dialysis fluid bag, the electrolyte solution (pH 7.02) in the lower compartment, and the mixture of the upper and lower compartment solutions (pH 6.76) were used as solvents, and 5 μg/ml of pyridoxamine dihydrochloride was dissolved in each solvent to obtain test samples. The test samples were left for three weeks at room temperature (25±5° C.), which was almost the same condition that renal failure patients generally store. During that period, sampling was conducted with time, and the amount of pyridoxamine contained in each test sample was measured.
The amount of pyridoxamine contained in the test samples was measured by high-performance liquid chromatography (HPLC) under the following conditions.
High-performance liquid chromatography: Shimadzu Corporation
Mobile phase: 0.1% trifluoroacetic acid-containing aqueous solution
Stationary phase: C18 column (Develosil), 4.6×150 mm, 5 μm; Nomura Chemical Co., Ltd.)
Detection: UV detection of absorbance at a wavelength of 294 nm (UV detector: Shimadzu Corporation)

[2] = system: pentosidine in the peritoneal tissue; assay: Peritoneum protective effect: pentosidine in peritoneal tissue of uremic rat models (Experimental Example 4); type: in vivo, rats; conditions: oral 30 mg/rat/day, 7 days
Experimental: The protective effect of oral administration of a pyridoxamine salt on the deterioration of the peritoneum caused by peritoneal dialysis was evaluated. More specifically, uremic rat models were subjected to intraperitoneal administration of a peritoneal dialysis fluid together with oral administration of a pyridoxamine salt, and the concentration of pentosidine in the peritoneal tissue, which was an indicator of tissue degeneration caused by enhanced carbonyl stress, was measured. Pentosidine is an advanced glycation/lipoxidation end product (AGE). Kidney subtotal excision rats were produced in the same manner as in Experimental Example 2. […] The sample for pentosidine measurement prepared in the above manner was subjected to HPLC under the following conditions, and pentosidine contained in the peritoneum was quantitatively analyzed. The quantitative analysis was performed using a standard calibration curve previously prepared by measurement under the following HPLC conditions using standard solutions of synthetic pentosidine of known concentrations. […] Stationary phase: C18 column (Puresil, 4.6×250 mm, 5 μm; Nihon Waters K.K.) Flow rate: 0.8 mL/min Detection: Fluorescence detection (excitation wavelength: 335 nm/absorption wavelength: 385 nm) (fluorescence detector: Shimadzu Corporation) Sample volume: 20 μL

[3] = lower-compartment solution (pH 7.02), room temperature, 1st day, time 0
[4] = lower-compartment solution (pH 7.02), room temperature, 2nd day, time 24
[5] = lower-compartment solution (pH 7.02), room temperature, 6th day, time 120
[6] = lower-compartment solution (pH 7.02), room temperature, 7th day, time 144
[7] = lower-compartment solution (pH 7.02), room temperature, 8th day, time 168
[8] = lower-compartment solution (pH 7.02), room temperature, 10th day, time 216
[9] = lower-compartment solution (pH 7.02), room temperature, 15th day, time 336
[10] = lower-compartment solution (pH 7.02), room temperature, 21st day, time 480
[11] = peritoneal dialysis fluid mixture (pH 6.76), room temperature, 1st day, time 0
[12] = peritoneal dialysis fluid mixture (pH 6.76), room temperature, 2nd day, time 24
[13] = peritoneal dialysis fluid mixture (pH 6.76), room temperature, 6th day, time 120
[14] = peritoneal dialysis fluid mixture (pH 6.76), room temperature, 7th day, time 144
[15] = peritoneal dialysis fluid mixture (pH 6.76), room temperature, 8th day, time 168
[16] = peritoneal dialysis fluid mixture (pH 6.76), room temperature, 10th day, time 216
[17] = peritoneal dialysis fluid mixture (pH 6.76), room temperature, 15th day, time 336
[18] = peritoneal dialysis fluid mixture (pH 6.76), room temperature, 21st day, time 480
[19] = upper-compartment solution (pH 4.15), room temperature, 1st day, time 0
[20] = upper-compartment solution (pH 4.15), room temperature, 2nd day, time 24
[21] = upper-compartment solution (pH 4.15), room temperature, 6th day, time 120
[22] = upper-compartment solution (pH 4.15), room temperature, 7th day, time 144
[23] = upper-compartment solution (pH 4.15), room temperature, 8th day, time 168
[24] = upper-compartment solution (pH 4.15), room temperature, 10th day, time 216
[25] = upper-compartment solution (pH 4.15), room temperature, 15th day, time 336
[26] = upper-compartment solution (pH 4.15), room temperature, 21st day, time 480

- peak height of pyridoxamine measured by HPLC [1, 3]: 13265
- rate of peak height of pyridoxamine to first measurement day [1, 3]: 100%
- peak height of pyridoxamine measured by HPLC [1, 4]: 12959
- rate of peak height of pyridoxamine to first measurement day [1, 4]: 98%
- peak height of pyridoxamine measured by HPLC [1, 5]: 13029
- rate of peak height of pyridoxamine to first measurement day [1, 5]: 98%
- peak height of pyridoxamine measured by HPLC [1, 6]: 12800
- rate of peak height of pyridoxamine to first measurement day [1, 6]: 96%
- peak height of pyridoxamine measured by HPLC [1, 7]: 12206
- rate of peak height of pyridoxamine to first measurement day [1, 7]: 92%
- peak height of pyridoxamine measured by HPLC [1, 8]: 11887
- rate of peak height of pyridoxamine to first measurement day [1, 8]: 90%
- peak height of pyridoxamine measured by HPLC [1, 9]: 11342
- rate of peak height of pyridoxamine to first measurement day [1, 9]: 86%
- peak height of pyridoxamine measured by HPLC [1, 10]: 10505
- rate of peak height of pyridoxamine to first measurement day [1, 10]: 79%
- peak height of pyridoxamine measured by HPLC [1, 11]: 11061
- rate of peak height of pyridoxamine to first measurement day [1, 11]: 100%
- peak height of pyridoxamine measured by HPLC [1, 12]: 9991
- rate of peak height of pyridoxamine to first measurement day [1, 12]: 90%
- peak height of pyridoxamine measured by HPLC [1, 13]: 10323
- rate of peak height of pyridoxamine to first measurement day [1, 13]: 93%
- peak height of pyridoxamine measured by HPLC [1, 14]: 9821
- rate of peak height of pyridoxamine to first measurement day [1, 14]: 89%
- peak height of pyridoxamine measured by HPLC [1, 15]: 9924
- rate of peak height of pyridoxamine to first measurement day [1, 15]: 90%
- peak height of pyridoxamine measured by HPLC [1, 16]: 9612
- rate of peak height of pyridoxamine to first measurement day [1, 16]: 87%
- peak height of pyridoxamine measured by HPLC [1, 17]: 9429
- rate of peak height of pyridoxamine to first measurement day [1, 17]: 85%
- peak height of pyridoxamine measured by HPLC [1, 18]: 6322
- rate of peak height of pyridoxamine to first measurement day [1, 18]: 57%
- pyridoxamine content relative to original content ([1]; upper-compartment and lower-compartment solutions before mixing, room temperature, within three weeks): 70%
- peak height of pyridoxamine measured by HPLC [1, 19]: 14051
- rate of peak height of pyridoxamine to first measurement day [1, 19]: 100%
- peak height of pyridoxamine measured by HPLC [1, 20]: 13271
- rate of peak height of pyridoxamine to first measurement day [1, 20]: 94%
- peak height of pyridoxamine measured by HPLC [1, 21]: 13084
- rate of peak height of pyridoxamine to first measurement day [1, 21]: 93%
- peak height of pyridoxamine measured by HPLC [1, 22]: 13316
- rate of peak height of pyridoxamine to first measurement day [1, 22]: 95%
- peak height of pyridoxamine measured by HPLC [1, 23]: 11561
- rate of peak height of pyridoxamine to first measurement day [1, 23]: 82%
- peak height of pyridoxamine measured by HPLC [1, 24]: 12139
- rate of peak height of pyridoxamine to first measurement day [1, 24]: 86%
- peak height of pyridoxamine measured by HPLC [1, 25]: 11518
- rate of peak height of pyridoxamine to first measurement day [1, 25]: 82%
- peak height of pyridoxamine measured by HPLC [1, 26]: 10605
- rate of peak height of pyridoxamine to first measurement day [1, 26]: 75%
- stability of pyridoxamine in the peritoneal dialysis fluid ([1]; upper-compartment solution, lower-compartment solution and mixture, left for three weeks): unstable
SMILES: Cc1ncc(CO)c(CN)c1O.Cl.Cl [pyridoxamine dihydrochloride, Pyridoxamine dihydrochloride]
- pentosidine concentration in the peritoneum tissue compared with control group ([2]; acid peritoneal dialysis fluid): significantly lower
- Pentosidine concentration in peritoneal tissue ([2]; per mg of peritoneum (wet mass), acid peritoneal dialysis fluid 20 ml i.p., control group 0.065): 0.022 pmol/mg
